{"source": "patent US7608619B2", "about": "“Substituted oxazole compounds with analgesic activity” (Gruenenthal GmbH, priority 2005, dated 2009)"}
{"biological_target": "T1, human μ-opiate receptor (Homo sapiens, UniProt P35372)", "T1 construct": "purchased Nen company, Zaventem, Belgium RB-HOM; host or cells: CHO-K1 cells (membrane preparation)", "T1 sequence (P35372 whole entry)": "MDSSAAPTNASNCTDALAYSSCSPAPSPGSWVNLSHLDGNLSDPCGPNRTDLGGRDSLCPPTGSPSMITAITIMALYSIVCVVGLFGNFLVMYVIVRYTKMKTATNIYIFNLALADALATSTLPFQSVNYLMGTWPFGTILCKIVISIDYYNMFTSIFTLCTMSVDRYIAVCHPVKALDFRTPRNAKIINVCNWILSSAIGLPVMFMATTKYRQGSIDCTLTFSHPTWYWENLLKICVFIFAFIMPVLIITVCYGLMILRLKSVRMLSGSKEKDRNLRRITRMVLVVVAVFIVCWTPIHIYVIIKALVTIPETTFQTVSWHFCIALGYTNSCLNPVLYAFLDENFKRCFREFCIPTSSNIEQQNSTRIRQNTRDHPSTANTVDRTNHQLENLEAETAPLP", "assay": "Affinity for the human μ-opiate receptor ([3H]-naloxone displacement, SPA, CHO-K1 membrane preparation)", "details": "test substance 1 μmole/l; displacement of 1 nmole/l [3H]-naloxone; percentage inhibition of the specific binding; read-out: μ-opioid receptor, % inhibition [1 μM]", "procedure,_shortened": "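[3H]-naloxone (1 nmol/l) displacement by SPA with WGA beads, using membranes of CHO-K1 cells expressing the receptor, in 50 mmol/l Tris-HCl with 0.05% azide and 0.06% BSA; 90 min at room temperature. Non-specific binding defined with 25 μmol/l naloxone. Value is % inhibition of specific binding at 1 μmol/l test compound.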", "units": {"inhibition at 1 µM": "%"}}
{"smiles": "CC1CCN(c2oc(C(CC3CCC(C(c4cccs4)N(C)C)CC3)N3CCCCC3)nc2Cc2ccccc2)CC1", "note": "(stereo not drawn) [compound 74, [(4-{2-[4-benzyl-5-(4-methylpiperidin-1-yl)-oxazol-2-yl]-2-piperidin-1-yl-ethyl}-cyclohexyl)-thiophen-2-yl-methyl]-dimethylamine]", "inhibition at 1 µM": 79}
{"smiles": "CN(Cc1ccccc1)c1oc(C(CC2CCC(C(c3cccs3)N(C)C)CC2)N2CCCCC2)nc1Cc1ccccc1", "note": "(stereo not drawn) [compound 75, Benzyl-(4-benzyl-2-{2-[4-(dimethylaminothiophen-2-yl-methyl)-cyclohexyl]-1-piperidin-1-yl-ethyl}-oxazol-5-yl)-methylamine]", "inhibition at 1 µM": 90}
{"smiles": "CN(C)C(c1cccs1)C1CCC(CC(c2nc(Cc3ccccc3)c(N3CCN(c4ccccc4)CC3)o2)N2CCCCC2)CC1", "note": "(stereo not drawn) [compound 76, [(4-{2-[4-benzyl-5-(4-phenyl-piperazin-1-yl)-oxazol-2-yl]-2-piperidin-1-yl-ethyl}-cyclohexyl)-thiophen-2-yl-methyl]-dimethylamine]", "inhibition at 1 µM": 94}
{"smiles": "CCN(CC)C(CC1CCC(C(c2cccs2)N(C)C)CC1)c1nc(Cc2ccccc2)c(N2CCC(Cc3ccccc3)CC2)o1", "note": "(stereo not drawn) [compound 77, {1-[4-benzyl-5-(4-benzyl-piperidin-1-yl)-oxazol-2-yl]-2-[4-(dimethylamino-thiophen-2-yl-methyl)-cyclohexyl]-ethyl}-diethylamine]", "inhibition at 1 µM": 91}
{"smiles": "CCN(CC)C(CC1CCC(C(c2cccs2)N(C)C)CC1)c1nc(Cc2ccccc2)c(N2CCN(Cc3ccccc3)CC2)o1", "note": "(stereo not drawn) [compound 78, {1-[4-benzyl-5-(4-benzyl-piperazin-1-yl)-oxazol-2-yl]-2-[4-(dimethylamino-thiophen-2-yl-methyl)-cyclohexyl]-ethyl}-diethylamine]", "inhibition at 1 µM": 100}
{"smiles": "CCN(CC)C(CC1CCC(C(c2cccs2)N(C)C)CC1)c1nc(Cc2ccccc2)c(N2CCC(C)CC2)o1", "note": "(stereo not drawn) [compound 79, {1-[4-benzyl-5-(4-methylpiperidin-1-yl)-oxazol-2-yl]-2-[4-(dimethylamino-thiophen-2-yl-methyl)-cyclohexyl]-ethyl}-diethylamine]", "inhibition at 1 µM": 97}
{"smiles": "CCN(CC)C(CC1CCC(C(c2cccs2)N(C)C)CC1)c1nc(Cc2ccccc2)c(N(C)Cc2ccccc2)o1", "note": "(stereo not drawn) [compound 80, Benzyl-(4-benzyl-2-{1-diethylamino-2-[4-(dimethylaminothiophen-2-yl-methyl)-cyclohexyl]-ethyl)-oxazol-5-yl)-methylamine]", "inhibition at 1 µM": 93}
{"smiles": "CN(C)C(c1cccs1)C1CCC(CC(c2nc(Cc3ccccc3)c(N3CCC(Cc4ccccc4)CC3)o2)N2CCN(Cc3ccccc3)CC2)CC1", "note": "(stereo not drawn) [compound 81, ({4-[2-[4-benzyl-5-(4-benzyl-piperidin-1-yl)-oxazol-2-yl]-2-(4-benzyl-piperazin-1-yl)-ethyl]-cyclohexyl}-thiophen-2-yl-methyl)-dimethylamine]", "inhibition at 1 µM": 81}
{"smiles": "CN(C)C(c1cccs1)C1CCC(CC(c2nc(Cc3ccccc3)c(N3CCN(Cc4ccccc4)CC3)o2)N2CCN(Cc3ccccc3)CC2)CC1", "note": "(stereo not drawn) [compound 82, ({4-[2-[4-benzyl-5-(4-benzylpiperazin-1-yl)-oxazol-2-yl]-2-(4-benzyl-piperazin-1-yl)-ethyl]-cyclohexyl}-thiophen-2-yl-methyl)-dimethylamine]", "inhibition at 1 µM": 83}
{"smiles": "CC1CCN(c2oc(C(CC3CCC(C(c4cccs4)N(C)C)CC3)N3CCN(Cc4ccccc4)CC3)nc2Cc2ccccc2)CC1", "note": "(stereo not drawn) [compound 83, ({4-[2-[4-benzyl-5-(4-methylpiperidin-1-yl)-oxazol-2-yl]-2-(4-benzyl-piperazin-1-yl)-ethyl]-cyclohexyl}-thiophen-2-yl-methyl)-dimethylamine]", "inhibition at 1 µM": 97}
{"smiles": "CN(Cc1ccccc1)c1oc(C(CC2CCC(C(c3cccs3)N(C)C)CC2)N2CCN(Cc3ccccc3)CC2)nc1Cc1ccccc1", "note": "(stereo not drawn) [compound 84, Benzyl-(4-benzyl-2-{1-(4-benzyl-piperazin-1-yl)-2-[4-(dimethylamino-thiophen-2-yl-methyl)-cyclohexyl]-ethyl}-oxazol-5-yl)-methylamine]", "inhibition at 1 µM": 88}
{"smiles": "CN(C)C(c1cccs1)C1CCC(CC(c2nc(Cc3ccccc3)c(N3CCN(c4ccccc4)CC3)o2)N2CCN(Cc3ccccc3)CC2)CC1", "note": "(stereo not drawn) [compound 85, ({4-[2-[4-benzyl-5-(4-phenyl-piperazin-1-yl)-oxazol-2-yl]-2-(4-benzyl-piperazin-1-yl)-ethyl]-cyclohexyl}-thiophen-2-yl-methyl)-dimethylamine]", "inhibition at 1 µM": 91}
{"smiles": "CN(CCc1ccccc1)c1oc(C(CC2CCC(C(c3ccc(Cl)cc3)N(C)C)CC2)N2CCCCC2)nc1Cc1ccccc1", "note": "(stereo not drawn) [compound 86, [4-benzyl-2-(2-{4-[(4-chlorophenyl)-dimethylaminomethyl]-cyclohexyl}-1-piperidin-1-yl-ethyl)-oxazol-5-yl]-methylphenethylamine]", "inhibition at 1 µM": 63}
{"smiles": "CCN(CC)c1oc(C(CC2CCC(C(c3ccc(Cl)cc3)N(C)C)CC2)N2CCCCC2)nc1Cc1ccccc1", "note": "(stereo not drawn) [compound 87, [4-benzyl-2-(2-{4-[(4-chlorophenyl)-dimethylaminomethyl]-cyclohexyl}-1-piperidin-1-yl-ethyl)-oxazol-5-yl]-diethylamine]", "inhibition at 1 µM": 64}
{"smiles": "CCN(CC)C(CC1CCC(C(c2ccc(Cl)cc2)N(C)C)CC1)c1nc(Cc2ccccc2)c(N2CC(C)CC(C)C2)o1", "note": "(stereo not drawn) [compound 88, (1-[4-benzyl-5-(3,5-dimethylpiperidin-1-yl)-oxazol-2-yl]-2-{4-[(4-chlorophenyl)-dimethylaminomethyl]-cyclohexyl}-ethyl)-diethylamine]", "inhibition at 1 µM": 79}
{"smiles": "CCN(CC)C(CC1CCC(C(c2ccc(Cl)cc2)N(C)C)CC1)c1nc(Cc2ccccc2)c(N(C)CCc2ccccc2)o1", "note": "(stereo not drawn) [compound 89, [4-benzyl-2-(2-{4-[(4-chlorophenyl)-dimethylaminomethyl]-cyclohexyl}-1-diethylaminoethyl)-oxazol-5-yl]-methyl-phenethylamine]", "inhibition at 1 µM": 87}
{"smiles": "CCN(CC)c1oc(C(CC2CCC(C(c3ccc(Cl)cc3)N(C)C)CC2)N(CC)CC)nc1Cc1ccccc1", "note": "(stereo not drawn) [compound 90, [4-benzyl-2-(2-{4-[(4-chlorophenyl)-dimethylaminomethyl]-cyclohexyl}-1-diethylaminoethyl)-oxazol-5-yl]-diethylamine]", "inhibition at 1 µM": 89}
{"smiles": "CCN(CC)C(CC1CCC(C(c2ccc(Cl)cc2)N(C)C)CC1)c1nc(Cc2ccccc2)c(N2CCSCC2)o1", "note": "(stereo not drawn) [compound 91, (1-(4-benzyl-5-thiomorpholin-4-yl-oxazol-2-yl)-2-{4-[(4-chlorophenyl)-dimethylaminomethyl]-cyclohexyl}-ethyl)-diethylamine]", "inhibition at 1 µM": 75}
{"smiles": "CN(C)C(c1ccc(Cl)cc1)C1CCC(CC(c2nc(Cc3ccccc3)c(N3CCSCC3)o2)N(C)c2ccccc2)CC1", "note": "(stereo not drawn) [compound 92, (1-(4-benzyl-5-thiomorpholin-4-yl-oxazol-2-yl)-2-{4-[(4-chlorophenyl)-dimethylaminomethyl]-cyclohexyl}-ethyl)-methylphenylamine]", "inhibition at 1 µM": 87}
{"smiles": "CN(CCc1ccccc1)c1oc(C(CC2CCC(C(c3ccc(Cl)cc3)N(C)C)CC2)N2CCN(Cc3ccccc3)CC2)nc1Cc1ccccc1", "note": "(stereo not drawn) [compound 93, [4-Benzyl-2-(1-(4-benzylpiperazin-1-yl)-2-{4-[(4-chlorophenyl)-dimethylaminomethyl]-cyclohexyl}-ethyl)-oxazol-5-yl]-methylphenethyl-amine]", "inhibition at 1 µM": 66}
{"smiles": "CCN(CC)c1oc(C(CC2CCC(C(c3ccc(Cl)cc3)N(C)C)CC2)N2CCN(Cc3ccccc3)CC2)nc1Cc1ccccc1", "note": "(stereo not drawn) [compound 94, [4-benzyl-2-(1-(4-benzylpiperazin-1-yl)-2-{4-[(4-chlorophenyl)-dimethylaminomethyl]-cyclohexyl}-ethyl)-oxazol-5-yl]-diethylamine]", "inhibition at 1 µM": 74}
{"smiles": "CN(CCc1ccccc1)c1oc(C(CC2CCC(C(c3ccc(F)cc3)N(C)C)CC2)N2CCCCC2)nc1Cc1ccccc1", "note": "(stereo not drawn) [compound 95, [4-benzyl-2-(2-{4-[dimethylamino-(4-fluorophenyl)-methyl]-cyclohexyl}-1-piperidin-1-yl-ethyl)-oxazol-5-yl]-methylphenethylamine]", "inhibition at 1 µM": 65}
{"smiles": "CCN(CC)C(CC1CCC(C(c2ccc(F)cc2)N(C)C)CC1)c1nc(Cc2ccccc2)c(N2CC(C)CC(C)C2)o1", "note": "(stereo not drawn) [compound 96, (1-[4-benzyl-5-(3,5-dimethylpiperidin-1-yl)-oxazol-2-yl]-2-{4-[dimethylamino-(4-fluorophenyl)-methyl]-cyclohexyl}-ethyl)-diethylamine]", "inhibition at 1 µM": 80}
{"smiles": "CCN(CC)C(CC1CCC(C(c2ccc(F)cc2)N(C)C)CC1)c1nc(Cc2ccccc2)c(N(C)CCc2ccccc2)o1", "note": "(stereo not drawn) [compound 97, [4-benzyl-2-(1-diethylamino-2-{4-[dimethylamino-(4-fluorophenyl)-methyl]-cyclohexyl}-ethyl)-oxazol-5-yl]-methylphenethylamine]", "inhibition at 1 µM": 85}
{"smiles": "CCN(CC)c1oc(C(CC2CCC(C(c3ccc(F)cc3)N(C)C)CC2)N(CC)CC)nc1Cc1ccccc1", "note": "(stereo not drawn) [compound 98, [4-benzyl-2-(1-diethylamino-2-{4-[dimethylamino-(4-fluorophenyl)-methyl]-cyclohexyl}-ethyl)-oxazol-5-yl]-diethylamine]", "inhibition at 1 µM": 77}
{"smiles": "CCN(CC)C(CC1CCC(C(c2ccc(F)cc2)N(C)C)CC1)c1nc(Cc2ccccc2)c(N2CCSCC2)o1", "note": "(stereo not drawn) [compound 99, (1-(4-benzyl-5-thiomorpholin-4-yl-oxazol-2-yl)-2-{4-[dimethylamino-(4-fluorophenyl)-methyl]-cyclohexyl}-ethyl)-diethylamine]", "inhibition at 1 µM": 62}
{"smiles": "CCN(CC)C(CC1CCC(C(c2ccc(F)cc2)N(C)C)CC1)c1nc(Cc2ccccc2)c(N2CCCC(C)C2)o1", "note": "(stereo not drawn) [compound 100, (1-[4-benzyl-5-(3-methylpiperidin-1-yl)-oxazol-2-yl]-2-{4-[dimethylamino-(4-fluorophenyl)-methyl]-cyclohexyl}-ethyl)-diethylamine]", "inhibition at 1 µM": 86}
